Assay results published in paper PMC8065335, “An integrative drug repositioning framework discovered a potential therapeutic agent targeting COVID-19” (Signal Transduction and Targeted Therapy, 2021).
Read-outs that look alike come from different tables or passages of the source.

How the values were obtained:
[1] = system: SARS-CoV-2; assay: in vitro anti-SARS-CoV-2 virus infection assay in Vero E6 cells, viral yield in supernatant by qRT-PCR; assay type: cell-based
[2] = target: nucleocapsid (N) protein of SARS-CoV-2 (SARS-CoV-2-N) (Severe acute respiratory syndrome coronavirus 2, UniProt P0DTC9); assay type: binding; details: for Kd: read-out: dissociation constant (KD)
[3] = system: SARS-CoV-2; assay: time-of-addition assay (full-time, entry, post-entry) in Vero E6 cells; assay type: cell-based; details: Severe acute respiratory syndrome coronavirus 2, Vero C1008, 14 h
[4] = parameters: method as in https://www.ema.europa.eu/en/medicines/human/EPAR/rubraca; details: ref https://www.ema.europa.eu/en/medicines/human/EPAR/rubraca; cited from earlier work
[5] = system: SARS-CoV-2; assay: inhibitor combination assay in Vero E6 cells; assay type: cell-based
Description: The cytotoxicity of the tested drugs on Vero E6 cells was determined by the CCK8 assays (Beyotime, China). At 48 h post addition of the tested drugs, 20 μL CCK8 was added to each well and incubated at 37 °C for 1 h. Then optical density was measured at 450 nm. The 50% cytotoxic concentration (CC50) values were calculated using GraphPad Prism 5 (GraphPad Software, USA). Vero E6 cells were seeded into 96-well plates with a density of 5 × 10^4 cells/well for incubation in DMEM medium supplemented with 10% FBS for 16 h in an incubator with 5% CO2 at 37 °C, for cells to reach 80% confluent. Then, cell culture medium of each well was removed, and PBS was used to wash the cells once, before evaluating the antiviral efficacy of the tested drugs. Four duplicated wells were made for each dose of drugs, and the cells were pretreated with different doses of antiviral drugs diluted by the cell maintenance solution (50 μL per well) for 1 h. For the virus control and cell control wells, cell medium containing DMSO or only medium of 50 μL per well was added. Next, pretreated or untreated cells in each well were infected with the virus with a multiplicity of infection (MOI) of 0.05 for 2 h. […] Then culture supernatant per well was harvested and inactivated at 56 °C for 30 min to further extract and quantify viral RNA. […]

[6] = system: IL-6; assay: LPS-induced IL-6 production in PBMCs (ELISA); assay type: cell-based, human
Description: (§1) Peripheral blood mononuclear cells (Allcells) were cultured at 37 °C at concentration 5% CO2 atmospheric on a 96-well plate in RPMI1640 cell growth medium (Gibico, Cat. 11875-093). For stimulation, PBMC cells were incubated with 1 μg/mL LPS (Sigma, Cat. L2880-25MG). To test whether CVL218 and olaparib can inhibit the production of IL-6, IL-10, IFN-γ, TNF-α, 1 μM and 3 μM concentrations of CVL218 or olaparib were added to cell culture medium for 6 and 24 h, respectively. The concentration of each cytokine was determined by ELISA using a commercial kit (BioLegend, USA).

[7] = system: IL-10; assay: LPS-induced IL-10 production in PBMCs (ELISA); assay type: cell-based, human; details: for LPS-induced expression of IL-10: 3 μM
Description: as §1

[8] = system: IFN-γ; assay: LPS-induced IFN-γ production in PBMCs (ELISA); assay type: cell-based, human; details: both 3 μM and 1 μM; 6 h and 24 h
Description: as §1

[9] = system: TNF-α; assay: LPS-induced TNF-α production in PBMCs (ELISA); assay type: cell-based, human; details: both 3 μM and 1 μM; 6 h and 24 h
Description: as §1

[10] = system: SARS-CoV-2; assay: indirect immunofluorescence / RT-PCR of virus nucleoprotein expression in infected Vero E6 cells; assay type: cell-based
[11] = biodistribution (tissue distribution) study in rats; assay type: in vivo, Sprague-Dawley rats; details: 20 mg/kg oral, 180 min time point
[12] = four-week toxicity and toxicokinetic study in rats; assay type: in vivo, Sprague-Dawley rats; details: for AUC0−24: dose not given
Description: Sprague-Dawley rats were purchased from Shanghai Laboratory Animal Center, China. The animals were grouped and housed in wire cages with no more than six per cage, under good laboratory conditions (temperature 25 ± 2 °C; relative humidity 50 ± 20%) and with dark and light cycle (12 h/12 h). Only healthy animals were used for experimental purpose. The pharmacokinetics and biodistribution study in Sprague-Dawley rats was approved by Center for Drug Safety Evaluation and Research, Shanghai Institute of Materia Medica, Chinese Academy of Sciences. A total of 144 Sprague-Dawley rats with each sex were used for toxicity study. Animals were randomly separated into four groups (18/sex/group). CVL218 was administered at doses of 20, 40, 60, and 160 mg/kg. For all the groups, 20 rats (10/sex/group) were randomly selected and euthanized at day 28, and their sections of various tissues and organs were obtained and frozen. Ten (5/sex/group) animals were euthanized after a 28-day drug free period, and their sections of tissues and organs were obtained and frozen. Six (3/sex/group) were euthanized after the blood samples were obtained. For pharmacokinetic and toxicity evaluation, clinical symptoms, mortality and the animals’ body weight were examined. Serum (0.5 mL) was collected to analyze toxicokinetics at different timepoints post drug administration. The plasma concentration-time data were analyzed using a noncompartmental method (Phoenix, version 1.3, USA) to derive the pharmacokinetic parameters.

[13] = 28-day toxicity and toxicokinetic study in cynomolgus monkeys; assay type: in vivo; details: for AUC0−24: dose not given
Description: Healthy male and female cynomolgus monkeys aged 3–4 years were purchased from Guangdong Landau Biotechnology, China. The animals were maintained in accordance with the Guide for the Care and Use of Laboratory Animals.
Cynomolgus monkey (5/sex/group) were selected using a computerized randomization procedure, and administered CVL218 by nasogastric feeding at dose levels of 0 (control), 5, 20, 80 mg/kg. Individual dose volumes were adjusted weekly based on body weight of monkeys. The monkeys were observed twice daily for viability/mortality and for any change in behavior, reaction to treatment or ill-health. Electrocardiograms, intraocular pressure, rectal temperature and body weight were recorded. For all the groups, […] of the animals were randomly selected and euthanized at day 28. The remaining animals were euthanized after a 28-day drug free period. Blood samples were taken before and at 0.5, 1, 2, 4, 8, and 24 h post-dose on days 1 and 28 of the treatment period. Pharmacokinetic evaluation was performed using a noncompartmental method (Phoenix, version 1.3, USA) and pharmacokinetic parameters were calculated for individual monkeys.

[14] = Phase I clinical trial, ascending dose studies; assay type: in vivo, human; details: doses as high as 1000 mg QD and 500 mg BID; preliminary Phase I data
[15] = system: Vero E6 cells; details: CCK8, 48 h
[16] = parameters: method as in earlier work; details: rats, 54 mg/kg oral; cited from earlier work
[17] = Severe acute respiratory syndrome coronavirus 2, Vero C1008, read-out: % Inhibition of SARS-CoV-2 replication
[18] = rats, oral gavage once a day for 28 days
[19] = monkeys, nasogastric, daily for 28 days

`CC(=O)N[C@H]1[C@H]([C@H](O)[C@H](O)CO)OC(C(=O)O)=C[C@@H]1N=C(N)N` [Zanamivir] gave an inhibition at 3 µM [1, 17] of -10.4%.
With `CN(C)CC(=O)Nc1ccc2[nH]c(=O)c3ccccc3c2c1.Cl` [PJ-34, N-(6-oxo-5,6-dihydrophenanthridin-2-yl)-N, N-dimethylacetamide. HCl] the “fold lower binding affinity than CVL218” value [2] was “about 22 fold” and the Kd [2] was 68.1 µM.
`CCC(CC)COC(=O)[C@H](C)N[P@](=O)(OC[C@H]1O[C@@](C#N)(c2ccc3c(N)ncnn23)[C@H](O)[C@@H]1O)Oc1ccccc1` [remdesivir] showed an inhibition at 10 µM ([3]; read-out: % Inhibition, Entry) of 5.86%, an inhibition at 10 µM ([3]; read-out: % Inhibition, Full-time) of 92.9% and an inhibition at 10 µM ([3]; read-out: % Inhibition, Post-entry) of 91.9%.
In the case of `CNCc1ccc(-c2[nH]c3cc(F)cc4c3c2CCNC4=O)cc1` [rucaparib], the “accessibility in the lung tissue” value [4] is given as “poor accessibility”.
For `CNCc1ccc(-c2cc3cc(F)cc(C(N)=O)c3o2)cc1` [CVL218], the “% Inhibition of SARS-CoV-2 replication” value ([1]; 3 μM, Vero E6, MOI 0.05, qRT-PCR, preliminary test) was 34.64%, the EC50 ([1]; Vero E6, MOI 0.05, 48 h, read-out: EC50 against SARS-CoV-2 replication) was 5.19 µM and the “inhibition rate against SARS-CoV-2 replication” value ([5]; CVL218 alone at 3.5 μM) was 36%. For the same molecule, the Kd ([2]; SPR, immobilized SARS-CoV-2-N) was 3.1 µM, the “LPS-induced production of IL-6” value ([6]; 3 μM, after both 6 h and 24 h incubation, p < 0.01) was “significantly repressed” and the “LPS-induced expression of IL-10” value ([7]; after 6 h) was “not downregulated”. For the same molecule, the “LPS-induced expression of IL-10” value ([7]; after 24 h, p < 0.001) was “dramatically reduced”, the “LPS-induced concentration of IFN-γ” value [8] was “significant decrease” and the “LPS-induced concentration of TNF-α” value [9] was “significant decrease”. The “cytopathic effect in the infected cells” value ([10]; 25 μM) was “no obvious cytopathic effect”, the “expression level of N gene compared to DMSO” value ([10]; RT-PCR, 5, 15, 25 μM, 48 h post infection) was “Lower expression level” and the “virus nucleoprotein (NP) expression compared to DMSO treated cells” value ([10]; immunofluorescence microscopy, 5, 15, 25 μM, dose-response) was “significantly lower”. The “lung concentration compared to that in plasma” value [11] was 188 fold, the “AUC0−24” value ([12]; female rats, day 1) was 7605 ng·h/mL and the “AUC0−24” value ([12]; female rats, day 28) was 6657 ng·h/mL. For the same molecule, the “AUC0−24” value ([12]; male rats, day 1) was 9102 ng·h/mL, the “AUC0−24” value ([12]; male rats, day 28) was 10253 ng·h/mL and the “body weight versus control groups” value ([12]; rats, 20/60/160 mg/kg oral, 28 days + 28 days recovery) was “no significant difference”. For the same molecule, the “maximum tolerable dose (MTD)” value [12, 18] was 160 mg/kg, the “no-observed adverse effect level (NOAEL)” value [12, 18] was 20 mg/kg and the “signs of toxicity after 28-day treatment period” value ([12]; rats, repeated dose) was “no apparent sign of toxicity”. The “AUC0−24” value ([13]; female monkeys, day 1) was 19466 ng·h/mL, the “AUC0−24” value ([13]; female monkeys, day 28) was 18774 ng·h/mL and the “AUC0−24” value ([13]; male monkeys, day 1) was 16924 ng·h/mL. For the same molecule, the “AUC0−24” value ([13]; male monkeys, day 28) was 22912 ng·h/mL, the “accumulation after consecutive 28 days of drug administration” value ([13]; monkeys, 5, 20 or 80 mg/kg) was “not apparent” and the “increase of exposure (AUC0−24) with dose” value ([13]; monkeys, 5, 20 or 80 mg/kg) was “approximately dose proportional”. The body weight ([13]; monkeys, high-dose (80 mg/kg) group, reversed after 28-day recovery) was “slight decrease”, the “maximum tolerable dose (MTD)” value [13, 19] was 80 mg/kg and the “no-observed adverse effect level (NOAEL)” value [13, 19] was 5 mg/kg. For the same molecule, the “adverse events in human” value [14] was “no Grade II and above adverse events”, the tolerability in human [14] was “well tolerated” and the CC50 [15] was 90.6 µM.
In the case of `O=C(c1cc(Cc2n[nH]c(=O)c3ccccc23)ccc1F)N1CCN(C(=O)C2CC2)CC1` [olaparib, reference compound], the inhibition at 3.2 µM ([1]; Severe acute respiratory syndrome coronavirus 2, Vero C1008, 3.2 μM, Vero E6, MOI 0.05, qRT-PCR, preliminary test, read-out: % Inhibition of SARS-CoV-2 replication) is reported as 15.3%, the “dissociation constant (KD)” value ([2]; SPR, immobilized SARS-CoV-2-N) is reported as “no binding signal” and the “LPS-induced stimulation of IL-6” value ([6]; both 3 μM and 1 μM) is reported as “no significant inhibition”. For the same molecule, the “LPS-induced stimulation of IL-10” value ([7]; both 3 μM and 1 μM) was “no significant inhibition”, the “LPS-induced concentration of IFN-γ” value [8] was “no significant inhibition” and the “LPS-induced concentration of TNF-α” value [9] was “no significant inhibition”.
In the case of `CCOC(=O)c1c(CSc2ccccc2)n(C)c2cc(Br)c(O)c(CN(C)C)c12` [arbidol], the inhibition at 30 µM [1, 17] is given as 99%, the inhibition at 3 µM ([1]; Severe acute respiratory syndrome coronavirus 2, Vero C1008, 3 μM, Vero E6, MOI 0.05, qRT-PCR, preliminary test, read-out: % Inhibition of SARS-CoV-2 replication) is given as 21.8% and the “tissue distribution post administration” value [16] is given as “mostly distributed in stomach and plasma”.
In the case of `NC(=O)c1nc(F)c[nH]c1=O` [favipiravir, reference compound], the “inhibition rate against SARS-CoV-2 replication” value ([5]; favipiravir alone at 30 μM) is reported as “no inhibitory activity”.
`CCOC(=O)C1=C[C@@H](OC(CC)CC)[C@H](NC(C)=O)[C@@H](N)C1` [Oseltamivir] showed an inhibition at 3 µM [1, 17] of -13.7%.
